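Grown in 96-well plates, cells were treated for 48 hours with each compound at five concentrations. Insufficient inhibition: endpoint recorded as highest concentration tested. GI50 is the concentration that inhibits growth by half.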 Activity calls are given as the source filed them. No stated cut-off is given here; in the data, active = GI50 up to about 1.1 µM and inactive = higher.
Experiments:
Experiment in all cases: NCI anticancer screen, dose series, 48 h
MOLT-4 = system: MOLT-4
SF-539 = system: SF-539
U-251 = system: U-251
IGROV-1 = system: IGROV-1
BT-549 = system: BT-549
MCF7 = system: MCF7
COLO 205 = system: COLO 205
T47D = system: T47D
SK-MEL-2 = system: SK-MEL-2
NCI/ADR-RES = system: NCI/ADR-RES
RXF 393 = system: RXF 393
UACC-62 = system: UACC-62
LOX IMVI = system: LOX IMVI
HT-29 = system: HT-29
OVCAR-3 = system: OVCAR-3
HCC 2998 = system: HCC 2998
TK-10 = system: TK-10
MDA-MB-231 = system: MDA-MB-231
HCT-15 = system: HCT-15
Malme-3M = system: Malme-3M
RPMI-8226 = system: RPMI-8226
SF-268 = system: SF-268
OVCAR-5 = system: OVCAR-5
SF-295 = system: SF-295
K562 = system: K562
UO-31 = system: UO-31
UACC-257 = system: UACC-257
SK-MEL-28 = system: SK-MEL-28
HCT-116 = system: HCT-116
KM12 = system: KM12
HOP-62 = system: HOP-62
CCRF-CEM = system: CCRF-CEM
EKVX = system: EKVX
OVCAR-8 = system: OVCAR-8
A498 = system: A498
SW-620 = system: SW-620
MDA-MB-435 = system: MDA-MB-435
DU-145 = system: DU-145
Hs-578T = system: Hs-578T
SK-OV-3 = system: SK-OV-3
HL-60 = system: HL-60
ACHN = system: ACHN
SR = system: SR
SK-MEL-5 = system: SK-MEL-5
NCI-H226 = system: NCI-H226
OVCAR-4 = system: OVCAR-4
786-0 = system: 786-0
NCI-H23 = system: NCI-H23
A549 = system: A549
HOP-92 = system: HOP-92
NCI-H460 = system: NCI-H460
NCI-H522 = system: NCI-H522
SNB-75 = system: SNB-75
CAKI-1 = system: CAKI-1
SNB-19 = system: SNB-19
M14 = system: M14
PC-3 = system: PC-3
SN12C = system: SN12C

CN(/N=C\c1ccc2ccccc2c1)C1=NCCN1
GI50 (MOLT-4): 14.7 µM (inactive)
GI50 (SF-539): 17.7 µM (inactive)
GI50 (U-251): 18 µM (inactive)
GI50 (IGROV-1): 19.5 µM (inactive)
GI50 (BT-549): 12.1 µM (inactive)
GI50 (MCF7): 16.3 µM (inactive)
GI50 (COLO 205): 15.3 µM (inactive)
GI50 (T47D): 26.2 µM (inactive)
GI50 (SK-MEL-2): 15.2 µM (inactive)
GI50 (NCI/ADR-RES): 20.6 µM (inactive)
GI50 (RXF 393): 8.63 µM (inactive)
GI50 (UACC-62): 18.3 µM (inactive)
GI50 (LOX IMVI): 11.2 µM (inactive)
GI50 (HT-29): 13.3 µM (inactive)
GI50 (OVCAR-3): 31.9 µM (inactive)
GI50 (HCC 2998): 16.2 µM (inactive)
GI50 (TK-10): 13.2 µM (inactive)
GI50 (MDA-MB-231): 16.4 µM (inactive)
GI50 (HCT-15): 25.2 µM
GI50 (Malme-3M): 15.6 µM (inactive)
GI50 (RPMI-8226): 17.3 µM (inactive)
GI50 (SF-268): 27.5 µM (inactive)
GI50 (OVCAR-5): 34.8 µM (inactive)
GI50 (SF-295): 14.4 µM (inactive)
GI50 (K562): 18.1 µM (inactive)
GI50 (UO-31): 13.2 µM (inactive)
GI50 (UACC-257): 14.8 µM (inactive)
GI50 (SK-MEL-28): 13.6 µM (inactive)
GI50 (HCT-116): 15.8 µM (inactive)
GI50 (KM12): 15.7 µM (inactive)
GI50 (HOP-62): 18.5 µM (inactive)
GI50 (CCRF-CEM): 24.3 µM (inactive)
GI50 (EKVX): 19.8 µM (inactive)
GI50 (OVCAR-8): 30.3 µM (inactive)
GI50 (A498): 12.1 µM (inactive)
GI50 (SW-620): 19.1 µM (inactive)
GI50 (MDA-MB-435): 15.6 µM (inactive)
GI50 (DU-145): 25.6 µM (inactive)
GI50 (Hs-578T): 20.4 µM (inactive)
GI50 (SK-OV-3): 35.8 µM (inactive)
GI50 (HL-60): 10.4 µM (inactive)
GI50 (ACHN): 23.1 µM (inactive)
GI50 (SR): 17.3 µM (inactive)
GI50 (SK-MEL-5): 14.3 µM (inactive)
GI50 (NCI-H226): 16.3 µM (inactive)
GI50 (OVCAR-4): 20.8 µM (inactive)
GI50 (786-0): 15.6 µM (inactive)
GI50 (NCI-H23): 30.7 µM (inactive)
GI50 (A549): 15.8 µM (inactive)
GI50 (HOP-92): 0.0817 µM (active)
GI50 (NCI-H460): 12.5 µM (inactive)
GI50 (NCI-H522): 15.7 µM (inactive)
GI50 (SNB-75): 10.6 µM (inactive)
GI50 (CAKI-1): 10.3 µM (inactive)

CCOC(=O)C1(C/C=C\CBr)CCCC1=O (configuration not stated)
GI50 (SF-539): 24.6 µM (inactive)
GI50 (U-251): 20.1 µM (inactive)
GI50 (IGROV-1): 24.9 µM (inactive)
GI50 (BT-549): 30.3 µM (inactive)
GI50 (MCF7): 11.5 µM (inactive)
GI50 (COLO 205): 37.3 µM (inactive)
GI50 (T47D): 30.5 µM (inactive)
GI50 (SNB-19): 38.3 µM (inactive)
GI50 (SK-MEL-2): 31.3 µM (inactive)
GI50 (NCI/ADR-RES): 25.5 µM (inactive)
GI50 (RXF 393): 16.6 µM (inactive)
GI50 (UACC-62): 15.7 µM (inactive)
GI50 (LOX IMVI): 15.7 µM (inactive)
GI50 (HT-29): 29.3 µM (inactive)
GI50 (TK-10): 13.2 µM (inactive)
GI50 (MDA-MB-231): 25.6 µM (inactive)
GI50 (HCT-15): 26.9 µM
GI50 (Malme-3M): 48.1 µM (inactive)
GI50 (SF-268): 32.5 µM (inactive)
GI50 (OVCAR-5): 31.2 µM (inactive)
GI50 (SF-295): 60 µM (inactive)
GI50 (UO-31): 21.9 µM (inactive)
GI50 (UACC-257): 39 µM (inactive)
GI50 (SK-MEL-28): 47.3 µM (inactive)
GI50 (HCT-116): 19.5 µM (inactive)
GI50 (KM12): 32.1 µM (inactive)
GI50 (HOP-62): 29.1 µM (inactive)
GI50 (EKVX): > 100 µM (inactive)
GI50 (OVCAR-8): 30.1 µM (inactive)
GI50 (A498): > 100 µM (inactive)
GI50 (SW-620): 22.4 µM (inactive)
GI50 (M14): 21.7 µM (inactive)
GI50 (MDA-MB-435): 22.1 µM (inactive)
GI50 (DU-145): 27.5 µM (inactive)
GI50 (Hs-578T): 55.6 µM (inactive)
GI50 (SK-OV-3): 83.9 µM (inactive)
GI50 (PC-3): 36.7 µM (inactive)
GI50 (ACHN): 20.4 µM (inactive)
GI50 (SN12C): 18.4 µM (inactive)
GI50 (SK-MEL-5): 26.7 µM (inactive)
GI50 (NCI-H226): 20.8 µM (inactive)
GI50 (OVCAR-4): 34.4 µM (inactive)
GI50 (786-0): 32.3 µM (inactive)
GI50 (NCI-H23): 23.8 µM (inactive)
GI50 (A549): 30.6 µM (inactive)
GI50 (NCI-H522): 21.4 µM (inactive)
GI50 (SNB-75): 27 µM (inactive)
GI50 (CAKI-1): 48.8 µM (inactive)

Oc1c(C(O)c2ccccn2)ccc2ccccc12 (configuration not stated)
GI50 (MOLT-4): 19.6 µM (inactive)
GI50 (SF-539): 87.3 µM (inactive)
GI50 (U-251): 52 µM (inactive)
GI50 (T47D): > 100 µM (inactive)
GI50 (SNB-19): > 100 µM (inactive)
GI50 (NCI/ADR-RES): 42.1 µM (inactive)
GI50 (RXF 393): 32.9 µM (inactive)
GI50 (UACC-62): 14.4 µM (inactive)
GI50 (LOX IMVI): > 100 µM (inactive)
GI50 (OVCAR-3): 56.8 µM (inactive)
GI50 (HCC 2998): 17.1 µM (inactive)
GI50 (HCT-15): 22.1 µM
GI50 (SF-268): 72.4 µM (inactive)
GI50 (SF-295): > 100 µM (inactive)
GI50 (K562): 26.4 µM (inactive)
GI50 (UO-31): 29.6 µM (inactive)
GI50 (UACC-257): > 100 µM (inactive)
GI50 (HCT-116): 32.2 µM (inactive)
GI50 (KM12): 54.1 µM (inactive)
GI50 (HOP-62): 81.3 µM (inactive)
GI50 (CCRF-CEM): 17.9 µM (inactive)
GI50 (EKVX): 53.1 µM (inactive)
GI50 (OVCAR-8): 74.6 µM (inactive)
GI50 (M14): > 100 µM (inactive)
GI50 (DU-145): > 100 µM (inactive)
GI50 (Hs-578T): 35.1 µM (inactive)
GI50 (PC-3): 26.9 µM (inactive)
GI50 (HL-60): 15.1 µM (inactive)
GI50 (ACHN): 66.4 µM (inactive)
GI50 (SN12C): 48.1 µM (inactive)
GI50 (SK-MEL-5): 22.7 µM (inactive)
GI50 (NCI-H226): 85.3 µM (inactive)
GI50 (NCI-H23): 69.8 µM (inactive)
GI50 (A549): 61.7 µM (inactive)
GI50 (NCI-H522): 17.4 µM (inactive)
GI50 (SNB-75): 24.4 µM (inactive)

C/C(=N\O)c1ccc2ccc3ccccc3c2c1
GI50 (MOLT-4): 18.5 µM (inactive)
GI50 (SF-539): 17.5 µM (inactive)
GI50 (U-251): 29.8 µM (inactive)
GI50 (IGROV-1): 44 µM (inactive)
GI50 (MCF7): 41.1 µM (inactive)
GI50 (COLO 205): 37.3 µM (inactive)
GI50 (T47D): 56.6 µM (inactive)
GI50 (SNB-19): 62.8 µM (inactive)
GI50 (SK-MEL-2): 43 µM (inactive)
GI50 (NCI/ADR-RES): 31.3 µM (inactive)
GI50 (RXF 393): 34.3 µM (inactive)
GI50 (UACC-62): 18.9 µM (inactive)
GI50 (LOX IMVI): 24.5 µM (inactive)
GI50 (HT-29): 28.3 µM (inactive)
GI50 (OVCAR-3): 34.2 µM (inactive)
GI50 (TK-10): 37.9 µM (inactive)
GI50 (MDA-MB-231): 28.1 µM (inactive)
GI50 (HCT-15): 28.9 µM
GI50 (Malme-3M): 23.1 µM (inactive)
GI50 (RPMI-8226): 34.6 µM (inactive)
GI50 (SF-268): 44.9 µM (inactive)
GI50 (OVCAR-5): 52.2 µM (inactive)
GI50 (SF-295): 37.3 µM (inactive)
GI50 (K562): 25.5 µM (inactive)
GI50 (UO-31): 35.1 µM (inactive)
GI50 (UACC-257): 22.9 µM (inactive)
GI50 (SK-MEL-28): 44.2 µM (inactive)
GI50 (HCT-116): 90.6 µM (inactive)
GI50 (KM12): 21.5 µM (inactive)
GI50 (HOP-62): > 100 µM (inactive)
GI50 (CCRF-CEM): 51.3 µM (inactive)
GI50 (EKVX): 15.3 µM (inactive)
GI50 (OVCAR-8): 21.6 µM (inactive)
GI50 (SW-620): 30.6 µM (inactive)
GI50 (M14): 66.5 µM (inactive)
GI50 (MDA-MB-435): 22.2 µM (inactive)
GI50 (DU-145): 33.3 µM (inactive)
GI50 (Hs-578T): 27.6 µM (inactive)
GI50 (SK-OV-3): > 100 µM (inactive)
GI50 (PC-3): 32.3 µM (inactive)
GI50 (HL-60): 22.2 µM (inactive)
GI50 (ACHN): 32.8 µM (inactive)
GI50 (SR): 21.8 µM (inactive)
GI50 (SN12C): 30.8 µM (inactive)
GI50 (SK-MEL-5): 19.2 µM (inactive)
GI50 (NCI-H226): 26.4 µM (inactive)
GI50 (OVCAR-4): 23 µM (inactive)
GI50 (786-0): > 100 µM (inactive)
GI50 (NCI-H23): 65.3 µM (inactive)
GI50 (A549): 31.8 µM (inactive)
GI50 (NCI-H460): 42.6 µM (inactive)
GI50 (NCI-H522): 29.9 µM (inactive)
GI50 (SNB-75): 25.5 µM (inactive)
GI50 (CAKI-1): 51.9 µM (inactive)
